According to patent US12577273B2, “Small molecule modulators of gut bacterial bile acid metabolism” (priority 2019, dated 2026):
“Also recorded” adds a separate entry of the source. Read-outs that look alike come from different tables or passages of the source. Values belong to the compound of their own block, whether it stands above or below them.

Tests used:
[1] = tested on: C57BL/6 mice; details: for detection in circulating plasma: in vivo
[2] = tested on: conventional mice; experiment: Food intake of conventional mice dosed with 3S-LCA-FMK; assay type: in vivo, mouse; details: compared to mice dosed with vehicle
[3] = tested on: NCI-H716 cells; experiment: Off-target profiling in mammalian cells using 7-N3; assay type: cell-based, human
Protocol: Off-Target profiling in Mammalian Cells using 7-N3. The human epithelial cell line NCI-H716 was used to study interactions with mammalian proteins. 10 μM 7-N3 (10 mM stock in DMSO) or 1 uL DMSO (for control) were added to ˜8×10^6 cells in 1 ml DPBS (HiMedia) and incubated for 1 h. Cells were collected in 15 ml Falcon tubes and washed 2 times in 15 ml DBPS by centrifugation at 500 g for 5 mins. A 3rd wash by centrifugation was performed in 1 mM solution of cOmplete™ Protease Inhibitor Cocktail (Roche, Switzerland) in DPBS. Cells were resuspended in 250 ul of DPBS with 1 mM cOmplete™ Protease Inhibitor Cocktail and sonicated at 50% amplitude for 2 secs followed by 30 secs on ice for 3 cycles. The lysate was centrifuged at 15,000 g for 15 mins at 4° C. The supernatant was removed and protein concentration was measured by Bradford assay. The lysates were then subjected to click reaction as per “Click Chemistry for In-gel Fluorescence Imaging” for in-gel fluorescence and “Click Chemistry for MS/MS on Mammalian Lysate” for mass spectrophotometer-based quantification and identification.
Click Chemistry for In-gel Fluorescence Imaging. Click reactions were performed on 25 μL scale. […]
Proteomic Analysis of Click-Tagged Proteins. […] Indicated bands were excised, subjected to in-gel digestion, and extracted peptides analyzed by nanoflow LC-MS/MS as described.^53

[4] = tested on: BSH activity in conventional mouse feces; experiment: Screen of inhibitors in conventional mouse feces; assay type: biochemical
Protocol: Screen of Inhibitors in Conventional Mouse Feces. […] The tubes were then frozen in dry ice for 5 mins and upon thawing were diluted with an equal volume of methanol. […] The supernatant was removed into a clean eppendorf tube and centrifuged again. […] The concentration of product detected from these assays was reported directly.

[5] = tested on: B. adolescentis BSH; experiment: Target validation and off-target profiling in B. adolescentis using 7-N3; assay type: cell-based, Bifidobacterium adolescentis L2-32
Protocol: Target Validation and Off-target Profiling in B. adolescentis using 7-N3. Pilot studies with 7-N3 were performed using B. adolescentis (Gram positive) and B. theta (Gram negative). We chose to use B. adolescentis due to the stronger total fluorescent signal detected by-in gel fluorescence. […] Cultures were allowed to grow anaerobically at 37° C. for 21 h. 10 μM 7-N3 (10 mM stock in DMSO) or […] DMSO (to control tubes) was then added to the cultures and incubated anaerobically at 37° C. for 1 h. The cultures were centrifuged at 2,500 g at 4° C. for 15 mins. The media was decanted and cells were resuspended in PBS containing 1 mM TCEP and 1 mM PMSF and centrifuged 4,200 rpm at 4° C. for 15 mins. The buffer was decanted and the cells were suspended in 300 μL of fresh buffer and transferred to homogenizing tubes (Precellys lysing kit tough micro-organism lysing VK05 tubes) with ceramic beads. The suspension was then homogenized (5000 speed for 90 s*2, 6500 speed for 60 s) and spun down for 20 min at 15,000 g at 4° C. The supernatant was removed and the concentration of proteins in the lysate was quantified by Bradford assay. The lysates were then subjected to click reaction as per “Click Chemistry for In-gel Fluorescence Imaging” for fluorescence imaging and “Click Chemistry for MS/MS on Bacterial Lysate” for mass spectrophotometer-based quantification and identification.
Cultures were allowed to grow anaerobically at 37° C. for 21 h. Decreasing concentrations of 7 were added to different tubes and the cultures were incubated anaerobically at 37° C. for 1 h. 10 μM 7-N3 was then added to the cultures and incubated anaerobically at 37° C. for an additional hour. The cultures were further processed as per the reported method in “Target Validation and Off-target Profiling in B. adolescentis using 7-N3” and “Click Chemistry for In-gel Fluorescence Imaging”.
Click Chemistry for In-gel Fluorescence Imaging. Click reactions were performed on 25 μL scale. Lysates (normalized to 1.5 mg/mL for both bacterial and mammalian cells) pretreated with 10 μM Compound 7-N3 were incubated with 100 μM fluor 488-alkyne (10 mM stock in DMSO), 100 μM CuBr (5 mM stock in DMSO), and 100 μM Tris[(1-benzyl-1H-1,2,3-triazol-4-yl)methyl]amine (5 mM stock in 4:1 t-BuOH:DMSO) for 1 h at 37° C. in the dark. 10 μL of 2×Laemmli buffer (containing 5% β-mercaptoethanol) was added to the reactions and the tubes were heated at 95° C. for 10 mins. 15 μL of the protein samples were then resolved by 10% SDS-PAGE. The ladder was diluted 100-fold and 10 μL was loaded. Gels were destained for 30 mins using 40% methanol, 50% acetic acid, 10% water and visualized using Bio-Rad ChemiDoc MP Imaging System. Gels were stained for 20 mins in Coomassie blue and destained for 2 h prior to imaging.
Click Chemistry for MS/MS on Bacterial Lysate. Click reactions were performed on 100 μL scale. Lysates (normalized to 1.3 mg/mL) pretreated with 10 μM 7-N3 were incubated with 100 μM desthiobiotin-PEG4-alkyne (10 mM stock in DMSO), 1 mM CuBr (50 mM stock in DMSO), and 1 mM Tris[(1-benzyl-1H-1,2,3-triazol-4-yl)methyl]amine (50 mM stock in 4:1 t-BuOH:DMSO) for 1 h at 37° C. The samples were then processed for further analysis as per “Proteomic Analysis of Click-Tagged Proteins”.
Proteomic Analysis of Click-Tagged Proteins.

[6] = tested on: differentiated Caco-2 cells; experiment: Epithelial permeability assay (4 kDa FITC-dextran)
[7] = tested on: C57BL/6 mice; details: mouse, in vivo
Protocol: Animal Studies. C57BL/6 mice obtained from Jackson laboratories were maintained under a strict 12 h/12 h light/dark cycle and a constant temperature (21±1° C.) and humidity (55-65%). All experiments were conducted on 8-9 week old male mice.
Mice were fed powdered standard chow diet (LabDiet, catalog no. 5053) for the duration of the experiment. Mice were split into two groups of ten mice each and were maintained on powdered chow (control group) or fed powdered chow containing 0.09% (w/w) GR-7 (experimental group). Feces from these mice were collected as described above at 8 h. Mice were euthanized after 30 hours of access to the powdered chow with or without GR-7 using carbon dioxide. Blood samples were collected by cardiac puncture and placed in EDTA-coated tubes on ice. The liver and cecal contents were then collected from each mouse, snap frozen in liquid nitrogen, and stored at −80° C. until further analysis. […]
BSH Activity in Feces. BSH activity in fecal pellets were quantified using a modified version of a published method.^45 Fecal pellets (approximately 10-20 mg) were suspended in buffer (10% PBS, 90% sodium acetate at pH 5.2) containing 100 μM (GCDCA-d4) to obtain a concentration of 20 mg/mL. […] The concentration of product detected from these assays were reported directly.
Quantification of Bile Acids in Tissues and Plasma. […]
Quantification of bacterial 16S rDNA copy number. […]

SMILES: C[C@H](CCC(=O)CF)[C@H]1CC[C@H]2[C@@H]3CC[C@@H]4C[C@H](OS(=O)(=O)O)CC[C@]4(C)[C@H]3CC[C@]12C [Compound 3S-LCA-FMK, 3-sulfated-lithocholic acid-fluoromethyl ketone]
BSH activity in feces ([1]; 0.03% weight/weight in chow ad libitum for 7 days): significantly reduced
detection in circulating plasma ([1]; male, C57Bl/6, mouse): No 3S-LCA-FMK was detectable
detection in circulating plasma ([1]; mouse): not detectable
food intake [2]: significant decrease in food consumption; also recorded: reduces food intake

SMILES: C[C@H](CCC(=O)CF)[C@H]1CC[C@H]2[C@@H]3[C@H](O)C[C@@H]4C[C@H](N=[N+]=[N-])CC[C@]4(C)[C@H]3CC[C@]12C [Compound 7-N3]
in-gel fluorescence labeling in NCI-H716 cells ([3]; 10 μM, 1 h, click with Fluor 488-alkyne): no significant labeling of proteins; also recorded: no enrichment of any band
enrichment of proteins in probe-treated NCI-H716 lysates ([3]; label-free LC-MS/MS): ≤ 2 fold
BSH inhibition in conventional mouse feces (in words) ([4]; 7-N3, concentration not given): significant BSH inhibition; also recorded: potently inhibited BSH activity in mouse feces
in-gel fluorescence labeling in B. adolescentis L2-32 ([5]; 10 μM, 1 hour, click with Fluor 488-alkyne): labeling of only one protein; also recorded: Only one fluorescent band was visible
enrichment of BSH in gel bands, probe- versus vehicle-treated cultures ([5]; desthiobiotin-alkyne, streptavidin pulldown, in-gel digestion, LC-MS/MS, semi-quantitative): 4.5 fold
enrichment of other bacterial proteins ([5]; label-free LC-MS/MS, biological triplicate): ≤ 2 fold
enrichment of BSH in probe-treated cultures ([5]; on-bead digestion, label-free LC-MS/MS): 3.6 fold

detection in feces [7]: detected
microbial biomass (16S rDNA copies/g in cecal contents) [7]: did not affect microbial biomass
SMILES: C[C@H](CCC(=O)CF)[C@H]1CC[C@H]2[C@@H]3[C@H](O)C[C@@H]4C[C@H](OS(=O)(=O)[O-])CC[C@]4(C)[C@H]3CC[C@]12C.[Na+] [GR-7]
epithelial barrier integrity of Caco-2 cells ([6]; 60 μM): did not affect epithelial barrier integrity
epithelial monolayer integrity (passive diffusion of 4 kDa FITC-dextran) ([6]; differentiated Caco-2, apical chamber, 6 or 12 h): did not compromise epithelial monolayer integrity
BSH inhibition in mouse fecal slurry (in words) ([4]; 20 μM or 60 μM of GR-7, 30 mins, GCDCA-d4 100 μM, 18 hours): remains a potent pan-BSH inhibitor; also recorded: inhibited BSH activity in a fecal slurry
